Assay results as given in patent publication US11534412B2, “Application of totarol and pharmaceutical composition containing totarol” (Emergopharm SP. Z O.O. SP.K., priority 2017, dated 2022).

System: Lactobacillus gasseri - clinical strain
Assay: Determination of the MIC value of totarol, broth dilution in 96-well plates with OD and quantitative culture
Format: cell-based
Conditions: for OD, average of 3 measurements / OD: 620 nm
Experimental: Test of antibacterial activity of totarol using DMI (dimethylisosorbide) as a solvent.
A suspension of 0.5 McF in physiological saline (suspension density 10^8 cfu/ml) was prepared from a 24-hour culture of a standard strain. 1 ml of the suspension was collected to 9 ml of a TSB broth ([…]). Suspensions with a dilution of 10^−6 were prepared in the described way. A suspension with a cell density of 10^5 cfu/ml was selected for further investigations. For each strain, 2 96-well plates were prepared: the first one was intended for the OD measurement, the second one—for quantitative culture on solid media. • A/ to wells B1-D1, B2-D2 and B-D 4-11, 100 µl of the broth were added; • B/ to wells B3-D3, 200 µl of the broth were added; • C/ to wells B1-D1, 1 µl of stock I was added; • D/ to wells B2-D2, 1 µl of stock II was added; • E/ to wells B3-D3, 2 µl of stock III were added. Using a multichannel pipette, 100 µl of the sample were collected from each of the B3-D3 wells and placed in wells B4-D4 (mixing by sucking the content in and letting it out for 5 times). The pipette tips were replaced and 100 µl of the content were collected from of the B4-D4 wells, and placed in wells B5-D5, mixing as previously. These operations were repeated through the wells B11-D11. The content in the B11-D11 wells was mixed, and 100 µl of the fluid were collected and discarded. This way, a series of dilutions of totarol samples in DMI in the range of 0.32% to 0.0004% was obtained. Then, 100 µl of a corresponding bacterial culture were added to the wells B, C, D 1-11. In consequence, a change in the final concentration range occurred, to 0.16%-0.0002%. Control Preparation: • Negative control: 100 µl of the broth+1 pl DMI were added to the Al well. • Positive control (I): 100 µl of the broth with the bacterial culture were added to the wells E1-G1. • Diluent positive control (II): 100 µl of the broth with the bacterial culture+1 pl DMI were added to the wells E2-G2. The OD value in the individual wells was read at the wavelength of 620 nm (read time 0). From the second 96-well plate, a culture was inoculated by a quantitative method from every dilution onto a well with a proper solid medium, and incubated for 24 h at 37° C. under aerobic or anaerobic conditions, depending on the strain. The plates were incubated under aerobic conditions or in an atmosphere of an elevated CO2 concentration (for the strains requiring it) in an incubator at 37° C. The OD was read after 8 h, 16 h, and 24 h, respectively. Before every OD measurement, the contents of the wells were mixed delicately. In parallel to the OD readout, cultures we inoculated from the second 96-well plate, from every dilution, into plates with a proper solid medium, and incubated for 24 h at 37° C., under aerobic or anaerobic conditions. For the analysis of the experimental results, an average value of the OD measurement obtained from three repetitions in the individual times (0, 8, 16, and 24 h) for the individual microbes (Gardnerella vaginalis, Streptococcus agalactiae, Enterococcus faecalis, Lactobacillus gasseri/plantarum) was taken. Additionally, the number of bacteria grown on solid media was taken into account. The results of the tests confirm the specific, concentration-dependent selectiveness, and the high antibacterial effectiveness of totarol against the pathogenic microorganisms: Gardnerella vaginalis, Streptococcus agalactiae, Enterococcus faecalis at low MIC values safe for bacteria of the Lactobacillus genus.

In the case of `CC(C)c1c(O)ccc2c1CC[C@H]1C(C)(C)CCC[C@]21C` [Totarol, totarol], the MIC value (L. gasseri) is reported as 0.04%, the Inoculation cfu/ml (totarol 0.0002%, 0 h) is reported as 3.1 × 10^5 cfu/ml and the “OD, average of 3 measurements” value (totarol 0.0002%, 0 h) is reported as 0.299. The Inoculation cfu/ml (totarol 0.0002%, 8 h) was 2.1 × 10^5 cfu/ml, the “OD, average of 3 measurements” value (totarol 0.0002%, 8 h) was 0.302 and the Inoculation cfu/ml (totarol 0.0002%, 16 h) was 5.9 × 10^6 cfu/ml. For the same molecule, the “OD, average of 3 measurements” value (totarol 0.0002%, 16 h) was 0.897, the Inoculation cfu/ml (totarol 0.0002%, 24 h) was 2.9 × 10^7 cfu/ml and the OD (totarol 0.0002%, 24 h) was 1.492. The Inoculation cfu/ml (totarol 0.0004%, 0 h) was 5.1 × 10^5 cfu/ml, the “OD, average of 3 measurements” value (totarol 0.0004%, 0 h) was 0.296 and the Inoculation cfu/ml (totarol 0.0004%, 8 h) was 2.1 × 10^5 cfu/ml. The “OD, average of 3 measurements” value (totarol 0.0004%, 8 h) was 0.306, the Inoculation cfu/ml (totarol 0.0004%, 16 h) was 3.9 × 10^6 cfu/ml and the “OD, average of 3 measurements” value (totarol 0.0004%, 16 h) was 0.915. The Inoculation cfu/ml (totarol 0.0004%, 24 h) was 3.2 × 10^7 cfu/ml, the OD (totarol 0.0004%, 24 h) was 1.484 and the Inoculation cfu/ml (totarol 0.0007%, 0 h) was 1.7 × 10^5 cfu/ml. The “OD, average of 3 measurements” value (totarol 0.0007%, 0 h) was 0.289, the Inoculation cfu/ml (totarol 0.0007%, 8 h) was 1.9 × 10^5 cfu/ml and the “OD, average of 3 measurements” value (totarol 0.0007%, 8 h) was 0.299. For the same molecule, the Inoculation cfu/ml (totarol 0.0007%, 16 h) was 3.6 × 10^6 cfu/ml, the “OD, average of 3 measurements” value (totarol 0.0007%, 16 h) was 0.879 and the Inoculation cfu/ml (totarol 0.0007%, 24 h) was 3 × 10^7 cfu/ml. For the same molecule, the OD (totarol 0.0007%, 24 h) was 1.458, the Inoculation cfu/ml (totarol 0.0013%, 0 h) was 3.8 × 10^5 cfu/ml and the “OD, average of 3 measurements” value (totarol 0.0013%, 0 h) was 0.298. For the same molecule, the Inoculation cfu/ml (totarol 0.0013%, 8 h) was 1.8 × 10^5 cfu/ml, the “OD, average of 3 measurements” value (totarol 0.0013%, 8 h) was 0.301 and the Inoculation cfu/ml (totarol 0.0013%, 16 h) was 4.1 × 10^6 cfu/ml. The “OD, average of 3 measurements” value (totarol 0.0013%, 16 h) was 0.879, the Inoculation cfu/ml (totarol 0.0013%, 24 h) was 2.1 × 10^7 cfu/ml and the OD (totarol 0.0013%, 24 h) was 1.457. The Inoculation cfu/ml (totarol 0.0025%, 0 h) was 4.5 × 10^5 cfu/ml, the “OD, average of 3 measurements” value (totarol 0.0025%, 0 h) was 0.285 and the Inoculation cfu/ml (totarol 0.0025%, 8 h) was 1.5 × 10^5 cfu/ml. For the same molecule, the “OD, average of 3 measurements” value (totarol 0.0025%, 8 h) was 0.302, the Inoculation cfu/ml (totarol 0.0025%, 16 h) was 2.3 × 10^6 cfu/ml and the “OD, average of 3 measurements” value (totarol 0.0025%, 16 h) was 0.880. The Inoculation cfu/ml (totarol 0.0025%, 24 h) was 2.3 × 10^7 cfu/ml, the OD (totarol 0.0025%, 24 h) was 1.459 and the Inoculation cfu/ml (totarol 0.005%, 0 h) was 1.2 × 10^5 cfu/ml. The “OD, average of 3 measurements” value (totarol 0.005%, 0 h) was 0.292, the Inoculation cfu/ml (totarol 0.005%, 8 h) was 2 × 10^5 cfu/ml and the “OD, average of 3 measurements” value (totarol 0.005%, 8 h) was 0.300. For the same molecule, the Inoculation cfu/ml (totarol 0.005%, 16 h) was 9.1 × 10^6 cfu/ml, the “OD, average of 3 measurements” value (totarol 0.005%, 16 h) was 0.843 and the Inoculation cfu/ml (totarol 0.005%, 24 h) was 2.1 × 10^7 cfu/ml. For the same molecule, the OD (totarol 0.005%, 24 h) was 1.387, the Inoculation cfu/ml (totarol 0.01%, 0 h) was 3.9 × 10^5 cfu/ml and the “OD, average of 3 measurements” value (totarol 0.01%, 0 h) was 0.301. The Inoculation cfu/ml (totarol 0.01%, 8 h) was 7 × 10^4 cfu/ml, the “OD, average of 3 measurements” value (totarol 0.01%, 8 h) was 0.297 and the Inoculation cfu/ml (totarol 0.01%, 16 h) was 5.3 × 10^6 cfu/ml. For the same molecule, the “OD, average of 3 measurements” value (totarol 0.01%, 16 h) was 0.799, the Inoculation cfu/ml (totarol 0.01%, 24 h) was 1.3 × 10^7 cfu/ml and the OD (totarol 0.01%, 24 h) was 1.301. The Inoculation cfu/ml (totarol 0.02%, 0 h) was 1.4 × 10^5 cfu/ml, the “OD, average of 3 measurements” value (totarol 0.02%, 0 h) was 0.305 and the Inoculation cfu/ml (totarol 0.02%, 8 h) was 1.4 × 10^5 cfu/ml. The “OD, average of 3 measurements” value (totarol 0.02%, 8 h) was 0.299, the Inoculation cfu/ml (totarol 0.02%, 16 h) was 2.1 × 10^5 cfu/ml and the “OD, average of 3 measurements” value (totarol 0.02%, 16 h) was 0.753. The Inoculation cfu/ml (totarol 0.02%, 24 h) was 1 × 10^5 cfu/ml, the OD (totarol 0.02%, 24 h) was 1.208 and the Inoculation cfu/ml (totarol 0.04%, 0 h) was 4.6 × 10^5 cfu/ml. The “OD, average of 3 measurements” value (totarol 0.04%, 0 h) was 0.352, the Inoculation cfu/ml (totarol 0.04%, 8 h) was 6 × 10^4 cfu/ml and the “OD, average of 3 measurements” value (totarol 0.04%, 8 h) was 0.335. For the same molecule, the Inoculation cfu/ml (totarol 0.04%, 16 h) was 4.5 × 10^3 cfu/ml, the “OD, average of 3 measurements” value (totarol 0.04%, 16 h) was 0.342 and the Inoculation cfu/ml (totarol 0.04%, 24 h) was 5 × 10^3 cfu/ml. For the same molecule, the OD (totarol 0.04%, 24 h) was 0.349, the Inoculation cfu/ml (totarol 0.08%, 0 h) was 2.9 × 10^5 cfu/ml and the “OD, average of 3 measurements” value (totarol 0.08%, 0 h) was 0.526. The Inoculation cfu/ml (totarol 0.08%, 8 h) was 1 × 10^4 cfu/ml, the “OD, average of 3 measurements” value (totarol 0.08%, 8 h) was 0.409 and the Inoculation cfu/ml (totarol 0.08%, 16 h) was 1.9 × 10^2 cfu/ml. The “OD, average of 3 measurements” value (totarol 0.08%, 16 h) was 0.463, the Inoculation cfu/ml (totarol 0.08%, 24 h) was 1.2 × 10^2 cfu/ml and the OD (totarol 0.08%, 24 h) was 0.472. The Inoculation cfu/ml (totarol 0.16%, 0 h) was 6.5 × 10^5 cfu/ml, the “OD, average of 3 measurements” value (totarol 0.16%, 0 h) was 0.427 and the Inoculation cfu/ml (totarol 0.16%, 8 h) was 2.5 × 10^4 cfu/ml. The “OD, average of 3 measurements” value (totarol 0.16%, 8 h) was 0.411, the Inoculation cfu/ml (totarol 0.16%, 16 h) was 3.1 × 10^1 cfu/ml and the “OD, average of 3 measurements” value (totarol 0.16%, 16 h) was 0.409. For the same molecule, the Inoculation cfu/ml (totarol 0.16%, 24 h) was 1 × 10^1 cfu/ml and the OD (totarol 0.16%, 24 h) was 0.406.
